By IC50 is commonly meant the point on the concentration scale where inhibition reaches its midpoint. High values mean a need for much substance, low ones inhibition by little substance. As usually defined, the MIC is the lowest concentration found to suppress growth.

SMILES strings stand for the structures. ≈ marks a conversion by molar mass, not a printed value. Structures can show the parent of a compound that is named as a salt.

The test system of assay [1] is E. coli RNase P RNA, M1 RNA. Briefly: Inhibition of bacterial RNase P activity, IC50 determination (cleavage of pATSerUG by M1 RNA). Format: biochemical. Particulars: NI: No inhibition.
The test system of assay [2] is Escherichia coli (ATCC25922). Briefly: MIC, broth microdilution (CLSI), Escherichia coli. Particulars: Escherichia coli, ATCC25922, read-out: E. coli ATCC 25922 MIC, Table XIII. (Dilution methods test growth across graded concentrations, often in twofold steps.)
In assay [3] the test system is Staphylococcus aureus (ATCC25923). Briefly: MIC, broth microdilution (CLSI), Staphylococcus aureus ATCC25923. Particulars: Staphylococcus aureus, ATCC25923, read-out: S. aureus ATCC 25923 MIC.
Method: Initial minimal inhibitory concentration (MIC) tests were made on two bacterial strains: • Escherichia coli (ATCC25922) • Staphylococcus aureus (ATCC25923).
MIC values were determined using the standard broth microdilution procedure based on the guidelines by the Clinical and Laboratory Standards Institute (CLSI). Briefly, the compounds were dissolved in DMSO to 10 mM. They were diluted in cation-adjusted Mueller-Hinton broth (CAMHB) to four times the highest concentration tested. A serial two-fold dilution in CAMHB was done in microdilution plates. The inoculum of bacterial strain to be tested was prepared by making a suspension of colonies from an 18 to 24 hours old plate in CAMHB. The inoculum was diluted so that, after inoculation, each well contained approximately 5×10^5 CFU/mL. To a volume of 50 μl compound in CA 3 an equal volume of inoculum was added. The tray was sealed in a plastic bag and incubated at 35° C. for 16 to 20 hours. To aid in the detection of growth the dye resazurin was added to a final concentration 0.001% and incubated at room temperature for 1 h. Reduction of resazurin, and therefore bacterial growth, was seen as a change from blue to pink.

`Cc1cccc(C(CC(=O)NC2CCC(N)CC2)c2cn(CC3CCCCC3)c3ccc(C4=CCNCC4)cc23)c1` [Compound 228, N-((1S,4S)-4-aminocyclohexyl)-3-(1-(cyclohexylmethyl)-5-(1,2,3,6-tetrahydropyridin-4-yl)-1H-indol-3-yl)-3-(m-tolyl)propanamide hydrochloride salt] showed an IC50 in assay [1] of 57 µM. Moreover, the MIC was found to be 40 µg/mL in assay [2] and 10 µg/mL in assay [3].
Regarding `COc1ccccc1-c1ccc2c(c1)c(C(CCN[C@H]1CC[C@H](N)CC1)c1cccc(C)c1)cn2CC1CCCCC1` (stereo partly drawn) [Compound 229, (1R,4R)-N1-(3-(1-(cyclohexylmethyl)-5-(2-methoxyphenyl)-1H-indol-3-yl)-3-(m-tolyl)propyl)cyclohexane-1,4-diamine hydrochloride salt], in assay [1], the IC50 was 5.4 µM. The figures for the MIC in assay [2] and in assay [3] were 20 µg/mL and 3 µg/mL, respectively.
The compound `COc1ccccc1-c1ccc2c(c1)c(CCC(=O)N[C@H]1CC[C@H](N)CC1)cn2CC1CCCCC1.Cl` [Compound 230, N-((1R,4R)-4-aminocyclohexyl)-3-(1-(cyclohexylmethyl)-5-(2-methoxyphenyl)-1H-indol-3-yl)propanamide hydrochloride salt] displayed an IC50 in assay [1] of 11 µM. Also, the MIC was 67 µg/mL in assay [2] and 8 µg/mL in assay [3].
The compound `Cl.N[C@H]1CC[C@H](NC(=O)CCc2cn(CC3CCCCC3)c3ccc(-c4ccccc4OC(F)(F)F)cc23)CC1` [Compound 231, N-((1R,4R)-4-aminocyclohexyl)-3-(1-(cyclohexylmethyl)-5-(2-(trifluoromethoxy)phenyl)-1H-indol-3-yl) propanamide hydrochloride salt] showed an IC50 in assay [1] of 4.4 µM. The MIC was more than 512 µg/mL in assay [2] and 5 µg/mL in assay [3].
For `Cl.NC1CCC(NC(=O)Cc2cn(CC3CCCCC3)c3ccc(-c4ccccc4OC(F)(F)F)cc23)CC1` [Compound 234, N-((1S,4S)-4-aminocyclohexyl)-2-(1-(cyclohexylmethyl)-5-(2-(trifluoromethoxy)phenyl)-1H-indol-3-yl)acetamide hydrochloride salt], in that order: 7 µM, 289 µg/mL and 9 µg/mL.
In assay [1], `Cc1ccccc1-c1ccc2c(c1)c(CC(=O)NC1CCC(N)CC1)cn2CC1CCCCC1.Cl` [Compound 235, N-((1S,4S)-4-aminocyclohexyl)-2-(1-(cyclohexylmethyl)-5-(o-tolyl)-1H-indol-3-yl)acetamide hydrochloride salt] showed an IC50 of 12 µM. Further, the MIC came to 126 µg/mL in assay [2] and 8 µg/mL in assay [3].
`Cc1cccc(C(CC(=O)NC2CCC(N)CC2)c2cn(CC3CCCCC3)c3ccc(C#N)cc23)c1.Cl` [Compound 236, N-((1S,4S)-4-aminocyclohexyl)-3-(5-cyano-1-(cyclohexylmethyl)-1H-indol-3-yl)-3-(m-tolyl)propanamide hydrochloride salt]: the IC50 in assay [1] is 20 µM. For the same compound, the MIC amounted to 68 µg/mL in assay [2] and 9 µg/mL in assay [3].
Regarding `Cc1cccc(C(CC(=O)NC2CCC(N)CC2)c2cn(CC3CCCCCC3)c3ccccc23)c1.Cl` [Compound 238, N-((1S,4S)-4-aminocyclohexyl)-3-(1-(cycloheptylmethyl)-1H-indol-3-yl)-3-(m-tolyl)propanamide hydrochloride salt], the IC50 in assay [1] turned out to be 9.2 µM. Further, the MIC was more than 512 µg/mL in assay [2] and 4 µg/mL in assay [3].
In the case of `Cl.NC1CCC(NC(=O)CCc2cn(CC3CCCCC3)c3ccc(-c4ccccc4Cl)cc23)CC1` [Compound 239, N-((1S,4S)-4-aminocyclohexyl)-3-(5-(2-chlorophenyl)-1-(cyclohexylmethyl)-1H-indol-3-yl)propanamide hydrochloride salt], the IC50 in assay [1] worked out at 2.9 µM. Moreover, the MIC in assay [2] came to 271 µg/mL; in assay [3], 4 µg/mL.
The like results for `NC1CCC(NCCc2cn(CC3CCCCC3)c3ccc(-c4ccccc4OC(F)(F)F)cc23)CC1` [Compound 241, (1S,4S)-N1-(2-(1-(cyclohexylmethyl)-5-(2-(trifluoromethoxy)phenyl)-1H-indol-3-yl)ethyl)cyclohexane-1,4-diamine hydrochloride salt] were, in that order, 25 µM, 5 µg/mL and 2 µg/mL.
`NC1CCC(NCCCc2cn(CC3CCCCC3)c3ccc(-c4cccc(OC(F)(F)F)c4)cc23)CC1` [Compound 242, (1S,4S)-N1-(3-(1-(cyclohexylmethyl)-5-(3-(trifluoromethoxy)phenyl)-1H-indol-3-yl)propyl)cyclohexane-1,4-diamine hydrochloride salt] gave an IC50 in assay [1] of 6.6 µM. The MIC was found to be 5 µg/mL in assay [2] and 2 µg/mL in assay [3].
For `Cc1cccc(C(CC(=O)NC2CCC(N)CC2)c2c(C)n(CC3CCCCC3)c3ccccc23)c1.Cl` [Compound 243, N-((1S,4S)-4-aminocyclohexyl)-3-(1-(cyclohexylmethyl)-2-methyl-1H-indol-3-yl)-3-(m-tolyl)propanamide hydrochloride salt], in that order: 35 µM, more than 512 µg/mL and 17 µg/mL.
Compound `Cc1ccccc1-c1ccc2c(c1)c(CCN[C@H]1CC[C@H](N)CC1)cn2CC1CCCCC1` [Compound 244, (1R,4R)-N1-(2-(1-(cyclohexylmethyl)-5-(o-tolyl)-1H-indol-3-yl)ethyl)cyclohexane-1,4-diamine hydrochloride salt] showed an IC50 in assay [1] of 14.7 µM. Moreover, the MIC in assay [2] and in assay [3] was 2 µg/mL throughout.
Consider `Cc1cccc(C(CC(=O)NC2CCC(C(=O)NO)CC2)c2cn(CC3CCCCC3)c3ccccc23)c1` [Compound 247, (1S,4S)-4-(3-(1-(cyclohexylmethyl)-1H-indol-3-yl)-3-(m-tolyl)propanamido)-N-hydroxycyclohexane-1-carboxamide hydrochloride salt], for which the “RNase P Inhibition IC50” value in assay [1] is “Ni”. For the same compound, the MIC in assay [2] and in assay [3] was more than 512 µg/mL in each case.
Regarding `NC1CCC(NC(=O)Cc2cn(CC3CCCCC3)c3ccc(-c4ccncc4)cc23)CC1` [Compound 255, N-((1S,4S)-4-aminocyclohexyl)-2-(1-(cyclohexylmethyl)-5-(pyridin-4-yl)-1H-indol-3-yl)acetamide hydrochloride salt], the IC50 in assay [1] amounted to 33 µM. Further, the results for the MIC in assay [2] and in assay [3] were 66 µg/mL and 8 µg/mL, respectively.
In the case of `Cc1cccc(-c2ccc3c(c2)c(CC(=O)NC2CCC(N)CC2)cn3C(=O)C2CCCCC2)c1.Cl` [Compound 259, N-((1S,4S)-4-aminocyclohexyl)-2-(1-(cyclohexanecarbonyl)-5-(m-tolyl)-1H-indol-3-yl)acetamide hydrochloride salt], the midpoint of inhibition in assay [1], the IC50, lay at 20 µM. The figures for the MIC in assay [2] and in assay [3] were more than 512 µg/mL and 267 µg/mL, respectively.
The like results for `N[C@@H](Cc1cn(CC2CCCCC2)c2ccccc12)C(=O)N[C@H]1CC[C@H](N)CC1` [Compound 264, (S)-2-amino-N-((1R,4S)-4-aminocyclohexyl)-3-(1-(cyclohexylmethyl)-1H-indol-3-yl)propanamide hydrochloride salt] were, in that order, 298 µM, more than 512 µg/mL and 240 µg/mL.
The like results for `Cl.N[C@H]1CC[C@H](NC(=O)c2cn(CC3CCCCC3)c3ccc(Br)cc23)CC1` [Compound 268, N-((1R,4R)-4-aminocyclohexyl)-5-bromo-1-(cyclohexylmethyl)-1H-indole-3-carboxamide hydrochloride salt] were, in that order, 59 µM, 30 µg/mL and 15 µg/mL.
In turn, `Cc1cccc(-c2ccc3c(c2)c(C(=O)N[C@H]2CC[C@H](N)CC2)cn3CC2CCCCC2)c1.Cl` [Compound 269, N-((1r,4r)-4-aminocyclohexyl)-1-(cyclohexylmethyl)-5-(m-tolyl)-1H-indole-3-carboxamide hydrochloride salt] gave an IC50 in assay [1] of 29 µM. Moreover, the values for the MIC in assay [2] and in assay [3] were more than 512 µg/mL and 8 µg/mL, respectively.
The like results for `Cl.N[C@H]1CC[C@H](NC(=O)CCc2nn(CC3CCCCC3)c3ccc(Br)cc23)CC1` [Compound 270, N-((1r,4r)-4-aminocyclohexyl)-3-(5-bromo-1-(cyclohexylmethyl)-1H-indazol-3-yl)propanamide hydrochloride salt] were, in that order, 135 µM, 127 µg/mL and 64 µg/mL.
Turning to `N[C@H]1CC[C@H](NC(=O)C2CCN(Cc3cn(CC4CCCCC4)c4ccc(Br)cc34)CC2)CC1` [Compound 272, N-((1R,4R)-4-aminocyclohexyl)-1-((5-bromo-1-(cyclohexylmethyl)-1H-indol-3-yl)methyl)piperidine-4-carboxamide], the IC50 in assay [1] turned out to be 121 µM. For the same compound, the MIC in assay [2] was 68 µg/mL (≈ 128 µM); in assay [3] it was 34 µg/mL (≈ 64.2 µM).
The like results for `Cl.N[C@H]1CC[C@H](NC(=O)CCc2cc3ccccc3n2CC2CCCCC2)CC1` [Compound 276, N-((1R,4R)-4-aminocyclohexyl)-3-(1-(cyclohexylmethyl)-1H-indol-2-yl)propanamide hydrochloride salt] were, in that order, 43 µM, 54 µg/mL and 54 µg/mL.
For the compound `Cl.O=C(Cc1cn(CC2CCC(F)(F)CC2)c2ccc(Br)cc12)NC1CCNCC1` [Compound 277, 2-(5-bromo-1-((4,4-difluorocyclohexyl)methyl)-1H-indol-3-yl)-N-(piperidin-4-yl)acetamide hydrochloride salt], in assay [1], inhibition was half-maximal at 229 µM (IC50). Besides, the MIC in assay [2] is 129 µg/mL; in assay [3], 65 µg/mL.
Take `Cc1cccc(C(CC(=O)N(C)C2CCNCC2)c2cn(CC3CCCCC3)c3ccc(Br)cc23)c1.Cl` (stereo not drawn) [Compound 278, 3-(5-bromo-1-(cyclohexylmethyl)-1H-indol-3-yl)-N-methyl-N-(piperidin-4-yl)-3-(m-tolyl)propanamide hydrochloride salt]: in assay [1], half-maximal inhibition (IC50) was put at 15 µM. In addition, the MIC in assay [2] is more than 512 µg/mL; in assay [3], 2 µg/mL.

Source of the values: US20210246115A1 (Bioimics AB, priority 2017, published 2021).
